In patent US7507281B2, “Antimicrobial cementitious composition, method and article” (Microban Products Company, priority 2005, dated 2009):

Assays:
K. pneumoniae = experiment: Zone of inhibition of fresh cured BAL grout discs, K. pneumoniae (Example 1); type: cell-based; details: Klebsiella pneumoniae
Aspergillus niger = experiment: AATCC 30 Part III antifungal test of grout discs after QUV/Xenon exposure and water-spray neutralization (Example 2); type: cell-based; details: for Growth A. niger: weathered and pH-neutralized, 168-hour incubation, sulfate
Procedure: Grout samples were prepared and cured as in Example 1, with antimicrobial agent admixed into the dry compound at levels of 0 ppm, 1000 ppm, and 2000 ppm based upon the total weight of the dry mix and antimicrobial agent (excluding water). Water was added, the slurry mixed, and 1.5-inch diameter pucks cast.
After air-curing, the samples were exposed for eight hours in either of QUV/Spray Accelerated Weathering Controller or Xenon Testing Chamber Xe-3HS (both by Q-Panel Lab Products, Cleveland, Ohio). The QUV exposure is an assay well known in the art for simulating aging, discoloration and/or degradation caused by conditions of ultraviolet radiation exposure, such as would be encountered in an outdoor application.
Thereafter, the sample discs were subjected to one hour of water spray, followed by one hour of condensation, alternatingly repeated for a total of eight hours. This treatment neutralizes the pH of the grout samples, simulating brief real-world exposure of the grout articles to, e.g., a shower stall application.
Samples then were plated against Aspergillus niger using the 30 Part III test. At the end of the 168-hour incubation period, the test plates were removed from the test chamber and the samples were evaluated for fungal attack and encroachment. The antimicrobial agent tested and the results of the evaluation are shown in Table 2; control and experimental plates are shown in FIGS. 1-3.

S. aureus = experiment: Zone of inhibition of fresh cured BAL grout discs, S. aureus (Example 1); type: cell-based; details: Staphylococcus aureus
[1] = UV stability / discoloration under ultraviolet irradiation; type: physicochemical; details: UVA 340 lamps, 168 hrs
From the text: Resistance to ultraviolet radiation and discoloring is advantageous given the typical outdoor environment of cured cementitious articles.

Thermal stability = type: physicochemical
Procedure: This species also appears to be thermally stable up to 160° C. and above. Thermal stability makes imazalil agent especially well-suited for inclusion in the production of cementitious powder by various manufacturers, as these powders are typically dried and packed at elevated temperatures. Many other antimicrobial/antifungal agents tend to discolor and clump when so thermally exposed.

[2] = 1000 ppm imazalil sulfate in BAL grout disc, fresh cured
[3] = 2000 ppm imazalil sulfate in BAL grout disc, fresh cured

Question: Which zone of inhibition at 500 ppm (K. pneumoniae; BAL, read-out: Zone of Inhibition, mm K. pneumoniae) does the source give for C=CCOC(Cn1ccnc1)c1ccc(Cl)cc1Cl.O=S(=O)(O)O (racemic) [Imazalil Sulfate, (±)-1-[2-(2,4-dichlorophenyl)-2-(2-propenyloxy)ethyl]-1H-imidazole sulfate] here?
Answer: The zone of inhibition at 500 ppm was 5 mm.

Question: What about the zone of inhibition at 1000 ppm (K. pneumoniae; [2]) of the same compound?
Answer: Its zone of inhibition at 1000 ppm is 5 mm.

Question: And the zone of inhibition at 2000 ppm (K. pneumoniae; [3])?
Answer: Its zone of inhibition at 2000 ppm is 5 mm.

Question: And the “Growth A. niger” value (Aspergillus niger; 1000 ppm imazalil sulfate in grout disc)?
Answer: Its value is “no growth”.

Question: What about the “Growth A. niger” value (Aspergillus niger; 2000 ppm imazalil sulfate in grout disc) of the same compound?
Answer: Its value is “no growth”.

Question: And the zone of inhibition at 500 ppm (S. aureus; BAL, read-out: Zone of Inhibition, mm S. aureus)?
Answer: The zone of inhibition at 500 ppm was 5 mm.

Question: What about the zone of inhibition at 1000 ppm (S. aureus; [2]) of the same compound?
Answer: The zone of inhibition at 1000 ppm was 6 mm.

Question: And the zone of inhibition at 2000 ppm (S. aureus; [3])?
Answer: The zone of inhibition at 2000 ppm was 6 mm.

Question: Which “Resistance of grout puck to fungal attack (FIG. 2)” value (Aspergillus niger; 1000 ppm imazalil agent in BAL grout, Aspergillus niger) does the source give for C=CCOC(Cn1ccnc1)c1ccc(Cl)cc1Cl (racemic) [imazalil agent, (±)-1-[2-(2,4-dichlorophenyl)-2-(2-propenyloxy)ethyl]-1H-imidazole] here?
Answer: The value was “strong resistance to fungal attack”.

Question: And the “Disruption to fungal encroachment by grout sample (FIG. 3)” value (Aspergillus niger; 2000 ppm imazalil agent in BAL grout, Aspergillus niger)?
Answer: Its value is “significant disruption to fungal encroachment”.

Question: And the “Discoloration after prolonged exposure to ultraviolet irradiation” value [1]?
Answer: The value was “no discoloration”.

Question: What about the “Thermally stable up to” value (Thermal stability) of the same compound?
Answer: Its value is at least 160 °C.
